The text below walks through data of US20220062190A1, “Therapeutic Agent and Nutraceutical Compositions And Methods for Making and Using Same” (NUREVELATION, LLC, priority 2020, published 2022).

Counter-ions that a name gives are not always drawn. A value given as a limit tells only on which side of the number the result lay.

Tested on in the first series: not listed separately
The experiment in a line: Solubility in water when preparing mass spectrometry standards. The class given is physicochemical. The conditions noted are these: standard and batch prepared in methanol instead. The procedure: Samples for mass spectrometry were weighed and then concentrated to 5 mg/mL. The samples were further diluted to 0.1 mg/mL for analysis in 50/50 water to methanol. Standards were prepared to 20 μg/mL in optima grade methanol or water. The following standards were prepared in water at 20 μg/mL: bethanechol chloride, chloroquine diphosphate, cyclobenzaprine hydrochloride, D-penicillamine, ondansetron hydrochloride, venlafaxine hydrochloride, and donepezil hydrochloride.
For `Cc1nc2n(c(=O)c1CCN1CCC(c3noc4cc(F)ccc34)CC1)CCCC2` [Risperidone], the solubility in water result is reported as “insolubility in water”.

The subject of the next series is movement disorder due to antipsychotics known as dystonia and parkinsonism.
Test: not given
The settings on record: use column of Table 1A; cited from earlier work.
Take `CN1[C@@H]2CC[C@H]1C[C@@H](OC(c1ccccc1)c1ccccc1)C2` [Benztropine]: the duration of benefits was not above 10 h and the “time until benefits are seen” value is not above 2 h.

Tested on in another series: not given
Test: not given
The settings on record: octanol/water; value not marked predicted; source not stated; cited from earlier work.
With `NCC(CC(=O)O)c1ccc(Cl)cc1` (centres unmarked) [Baclofen], the LogP is reported as 1.3.

Consider `CC(C[N+](C)(C)C)OC(N)=O` (centres unmarked) [Bethanechol chloride], for which the LogP is listed as −4.1.

For `COc1ccccc1OCCNCC(O)COc1cccc2[nH]c3ccccc3c12` (centres unmarked) [Carvedilol], the LogP is 3.8.

As to `CN(C)CCC=C1c2ccccc2C=Cc2ccccc21` [Cyclobenzaprine hydrochloride], the LogP was 5.2.

Take `CC(C)(S)[C@@H](N)C(=O)O` [D-penicillamine]: the LogP is on record as −1.78.

As to `CC1=NS(=O)(=O)c2cc(Cl)ccc2N1` [Diazoxide], the LogP is on record as 1.20.

With `C[C@H]1c2cccc(O)c2C(=O)C2=C(O)[C@]3(O)C(=O)C(C(N)=O)=C(O)[C@@H](N(C)C)[C@@H]3[C@@H](O)[C@@H]21` [Doxycycline], the LogP is listed as 0.63.

As for `C#C[C@]1(O)CC[C@H]2[C@@H]3CCc4cc(O)ccc4[C@H]3CC[C@@]21C` [Ethinylestradiol], the lipophilicity (LogP) was 3.67.

Turning to `COc1ccccc1OCC(O)CO` (centres unmarked) [Guaifenesin], the LogP is given as 1.39.

On to `CCCCC1=NC2(CCCC2)C(=O)N1Cc1ccc(-c2ccccc2-c2nnn[nH]2)cc1` [Irbesartan], for which the LogP is given as 4.5.

In the case of `Nc1nnc(-c2cccc(Cl)c2Cl)c(N)n1` [Lamotrigine], the LogP is recorded as 1.93.

Take `N[C@@H](Cc1cc(I)c(Oc2cc(I)c(O)c(I)c2)c(I)c1)C(=O)O` [Levothyroxine]: the LogP is 4.0.

In the case of `NCCCC[C@H](N[C@@H](CCc1ccccc1)C(=O)O)C(=O)N1CCC[C@H]1C(=O)O` [Lisinopril dihydrate], the LogP is −1.01.

For `CC[C@H](C)C(=O)O[C@H]1C[C@@H](C)C=C2C=C[C@H](C)[C@H](CC[C@@H]3C[C@@H](O)CC(=O)O3)[C@H]21` [Lovaststin], the LogP is given as 4.08.

As for `Cc1cnc(NC(=O)C2=C(O)c3ccccc3S(=O)(=O)N2C)s1` [Meloxicam], the LogP is 0.1.

On to `Nc1ccc(O)c(C(=O)O)c1` [Mesalamine], for which the LogP is recorded as −0.29.

Take `NC(=O)c1cnccn1` [Pyrazinamide]: the LogP is recorded as −0.60.

As to `Cc1ncc(CO)c(CO)c1O` [Pyridoxine], the LogP is −0.77.

`CNC(=C[N+](=O)[O-])NCCSCc1ccc(CN(C)C)o1` [Ranitidine]: the log partition coefficient (LogP) is 0.2.

`CC(=O)S[C@@H]1CC2=CC(=O)CC[C@]2(C)[C@H]2CC[C@@]3(C)[C@@H](CC[C@@]34CCC(=O)O4)[C@H]12` [Spironolactone]: the LogP is 2.78.
